Tested on: Vasopressin V2
Assay: Vasopressin V2 agonist effects of test compounds in normal conscious water-loaded rats
Type: in vivo
Settings: Sprague-Dawley (CD) rats, oral 10 mg/kg, urine collected for four hours; for Osmolality (% Increase): change in osmolality as percent of control; for Urine Volume (% decrease): vs. control
Description: Vasopressin V2 Agonist Effects of Test Compounds in Normal Conscious Water-Loaded Rats:
On the day of test, rats were placed individually into metabolic cages equipped with devices to separate the feces from the urine and containers for collection of urine. Test compound or reference agent was given at an oral dose of 10 mg/kg in a volume of 10 ml /kg. […] Thirty minutes after dosing the test compound, rats were gavaged with water at 30 ml /kg into the stomach using a feeding needle. During the test, rats were not provided with water or food. Urine was collected for four hours after dosing of the test compound. At the end of four hours, urine volume was measured. […] Determinations of Na^+, K^+ and Cl^- ion were carried out using ion specific electrodes in a Beckman SYNCHRON EL-ISE Electrolyte System analyzer. […] In the screening test, two rats were used for each compound. If the difference in the urine volume of the two rats was greater than 50%, a third rat was used.

| Compound | Osmolality (% Increase) [%] | Urine Volume (% decrease) [%] |
| --- | --- | --- |
| Cc1cnn(-c2ccc(C(=O)N3Cc4cccn4Cc4ccccc43)c(C(F)(F)F)c2)c1 [Example 3, [4-(4-Methyl-pyrazol-1-yl)-2-trifluoromethyl-phenyl]-(5H,11H-pyrrolo[2,1-c][1,4]benzodiazepin-10-yl)-methanone] | 240 | 58 |
| O=C(c1ccc(-n2cccn2)cc1C(F)(F)F)N1Cc2cccn2Cc2ccccc21 [Example 4, (4-Pyrazol-1-yl-2-trifluoromethyl-phenyl)-(5H,11H-pyrrolo[2,1-c][1,4]benzodiazepin-10-yl)-methanone] | 225 | 57 |
| O=C(c1ccc(-n2ccc(C3CC3)n2)cc1C(F)(F)F)N1Cc2cccn2Cc2ccccc21 [Example 5, [4-(3-Cyclopropyl-pyrazol-1-yl)-2-trifluoromethy-phenyl]-(5H,11H-pyrrolo[2,1-c][1,4]benzodiazepin-10-yl)-methanone] | 231 | 56 |
| Cc1cn(-c2ccc(C(=O)N3Cc4cccn4Cc4ccccc43)c(C(F)(F)F)c2)cn1 [Example 6, [4-(4-Methyl-imidazol-1-yl)-2-trifluoromethyl-phenyl]-(5H,11H-pyrrolo[2,1-c][1,4]benzodiazepin-10-yl)-methanone] | 270 | 58 |
| O=C(c1ccc(-n2cncn2)cc1C(F)(F)F)N1Cc2cccn2Cc2ccccc21 [Example 7, (5H,11H-Pyrrolo[2,1-c][1,4]benzodiazepin-10-yl)-(4-[1,2,4]triazol-1-yl-2-trifluoromethylphenyl)-methanone] | 137 | 13 |
| Cc1ccn(-c2ccc(C(=O)N3Cc4cccn4Cc4ccccc43)c(Cl)c2)n1 [Example 9A] | 325 | 70 |
| Cc1ccnn1-c1ccc(C(=O)N2Cc3cccn3Cc3ccccc32)c(Cl)c1 [Example 9B] | 168 | 21 |
| Cc1cnn(-c2ccc(C(=O)N3Cc4cccn4Cc4ccccc43)c(Cl)c2)c1 [Example 11] | 285 | 70 |
| Cc1cn(-c2ccc(C(=O)N3Cc4cccn4Cc4ccccc43)c(Cl)c2)cn1 [Example 12, [2-Chloro-4-(4-methyl-imidazol-1-yl)-phenyl]-(5H,11H-pyrrolo[2,1-c][1,4]benzodiazepin-10-yl)-methanone] | 330 | 69 |
| O=C(c1ccc(-n2ccc(C(F)(F)F)n2)cc1Cl)N1Cc2cccn2Cc2ccccc21 [Example 13, [2-Chloro-4-(3-trifluoromethyl-pyrazol-1-yl)-phenyl]-(5H,11H-pyrrolo[2,1-c][1,4]benzodiazepin-10-yl)-methanone] | 229 | 50 |
| O=C(c1ccc(-n2cncn2)cc1Cl)N1Cc2cccn2Cc2ccccc21 [Example 14, [2-Chloro-4-(1,2,4-triazol-1-yl)-phenyl]-(5H,11H-pyrrolo[2,1-c][1,4]benzodiazepin-10-yl)-methanone] | 406 | 86 |
| O=C(c1ccc(-n2cccc2)cc1Cl)N1Cc2cccn2Cc2ccccc21 [Example 15, (2-Chloro-4-pyrrol-1-yl-phenyl)-(5H,11H-pyrrolo[2,1-c][1,4]benzodiazepin-10-yl)-methanone] | 38 | 47 |
| O=C(c1ccc(-n2cccn2)cc1Cl)N1Cc2cccn2Cc2ccccc21 [Example 16, (2-Chloro-4-pyrazol-1-yl-phenyl)(5H,11H-Pyrrolo[2,1-c][1,4]benzodiazepin-10-yl)-methanone] | 400 | 88 |
| Cc1ccn(-c2ccc(C(=O)N3Cc4ccc(C)n4Cc4ccccc43)c(Cl)c2)n1 [Example 18, [2-Chloro-4-(3-methylpyrazol-1-yl)-phenyl]-(3-methyl-5H,11H-pyrrolo[2,1-c][1,4]benzodiazepin-10-yl)-methanone] | 214 | 52 |
| Cc1cnn(-c2ncc(C(=O)N3Cc4cccn4Cc4ccccc43)c(C(F)(F)F)n2)c1 [Example 21, [2-(4-Methyl-pyrazol-1-yl)-4-trifluoromethyl-pyrimidin-5-yl]-(5H,11H-pyrrolo[2,1-c][1,4]benzodiazepin-10-yl)-methanone] | 181 | 49 |
| CC(=O)c1ccc(C(=O)N2Cc3cccn3Cc3ccccc32)cc1 [Example 22, 1-[4-(5H,11H-Pyrrolo[2,1-c][1,4]benzodiazepine-10-carbonyl)-phenyl]-ethanone] | 322 | 80 |
| O=C(c1ccc(-c2cc[nH]n2)cc1)N1Cc2cccn2Cc2ccccc21 [Example 24, [4-(1H-Pyrazol-3-yl)-phenyl]-(5H,11H-pyrrolo[2,1-c][1,4]benzodiazepin-10-yl)-methanone] | 159 | 47 |
| Cn1ccc(-c2ccc(C(=O)N3Cc4cccn4Cc4ccccc43)cc2)n1 [Example 25, [4-(1-Methyl-1H-pyrazolyl-3-yl)-phenyl]-(5H,11H-pyrrolo[2,1-c][1,4]-benzodiazepin-10-yl)-methanone] | 979 | 87 |
| CCn1ccc(-c2ccc(C(=O)N3Cc4cccn4Cc4ccccc43)cc2)n1 [Example 26, [4-(1-Ethyl-1H-pyrazol-3-yl)-phenyl]-(5H,11H-pyrrolo[2,1-c][1,4]-benzodiazepin-10-yl)-methanone] | 279 | 54 |
| CCCn1ccc(-c2ccc(C(=O)N3Cc4cccn4Cc4ccccc43)cc2)n1 [Example 27, [4-(1-Propyl-1H-pyrazol-3-yl)-phenyl]-(5H,11H-pyrrolo[2,1-c][1,4]-benzodiazepin-10-yl)-methanone] | 183 | 76 |
| CCCCn1ccc(-c2ccc(C(=O)N3Cc4cccn4Cc4ccccc43)cc2)n1 [Example 28, [4-(1-Butyl-1H-pyrazol-3-yl)-phenyl]-(5H,11H-pyrrolo[2,1-c][1,4]-benzodiazepin-10-yl)-methanone] | 37 | 75 |
| COCn1ccc(-c2ccc(C(=O)N3Cc4cccn4Cc4ccccc43)cc2)n1 [Example 29, [4-(1-methoxymethyl-1H-pyrazol-3-yl)-phenyl]-(5H,11H-pyrrolo[2,1-c][1,4]-benzodiazepin-10-yl)-methanone] | 305 | 66 |
| CCC(=O)n1ccc(-c2ccc(C(=O)N3Cc4cccn4Cc4ccccc43)cc2)n1 [Example 31, 1-{3-[4-(5H,11H-Pyrrolo[2,1-c][1,4]benzodiazepine-10-carbonyl)-phenyl]-pyrazol-1-yl}-propan-1-one] | 298 | 72 |
| O=C(c1ccc(-c2ccn(C(=O)C3CC3)n2)cc1)N1Cc2cccn2Cc2ccccc21 [Example 32, [4-(1-Cyclopropanecarbonyl-1H-pyrazol-3-yl)-phenyl]-(5H,11H-pyrrolo[2,1-c][1,4]benzodiazepin-10-yl)-methanone] | 373 | 77 |
| CCCC(=O)n1ccc(-c2ccc(C(=O)N3Cc4cccn4Cc4ccccc43)cc2)n1 [Example 33, 1-{3-[4-(5H,11H-Pyrrolo[2,1-c][1,4]benzodiazepine-10-carbonyl)-phenyl]-pyrazol-1-yl}-butan-1-one] | 362 | 68 |
| Cc1ccc(F)cc1C(=O)n1ccc(-c2ccc(C(=O)N3Cc4cccn4Cc4ccccc43)cc2)n1 [Example 35, {4-[1-(5-Fluoro-2-methyl-benzoyl)-1H-pyrazol-3-yl]-phenyl}-(5H,11H-pyrrolo[2,1-c][1,4]benzodiazepin-10-yl)-methanone] | 308 | 63 |
| O=C(c1ccc(-c2ccn(C(=O)c3ccc(F)cc3Cl)n2)cc1)N1Cc2cccn2Cc2ccccc21 [Example 37, {4-[1-(2-Chloro-4-fluoro-benzoyl)-1H-pyrazol-3-yl]-phenyl}-(5H,11H-pyrrolo[2,1-c][1,4]benzodiazepin-10-yl]methanone] | 370 | 71 |
| O=C(c1ccc(-c2ccn(C(=O)Cc3ccc(Cl)cc3Cl)n2)cc1)N1Cc2cccn2Cc2ccccc21 [Example 39, 2-(2,4-Dichloro-phenyl)-1-{3-[4-(5H,11H-pyrrolo[2,1-c][1,4]benzodiazepine-10-carbonyl)-phenyl]-pyrazol-1-yl}-ethanone] | 253 | 69 |
| O=C(c1ccc(-c2ccn(C(=O)c3ccccc3-c3ccccc3)n2)cc1)N1Cc2cccn2Cc2ccccc21 [Example 40, {4-[1-(Biphenyl-2-carbonyl)-1H-pyrazol-3-yl]-phenyl}-(5H,11H-pyrrolo[2,1-c][1,4]benzodiazepin-10-yl)-methanone] | 183 | 46 |
| O=C(c1ccc(-c2ccn(C(=O)c3ccccc3-c3ccc(C(F)(F)F)cc3)n2)cc1)N1Cc2cccn2Cc2ccccc21 [Example 41, {4-[1-(4'-Trifluoromethyl-biphenyl-2-carbonyl)-1H-pyrazol-3-yl]-phenyl}-(5H,11H-pyrrolo[2,1-c][1,4]benzodiazepin-10-yl)-methanone] | 240 | 69 |

— patent publication EP1000062B1, “TRICYCLIC VASOPRESSIN AGONISTS” (Wyeth, priority 1997, dated 1999)
